Test results published in the supplement of paper PMC11061612.

Columns and labels:
AZD0156 = compound: CN(C)CCCOc1ccc(-c2ccc3ncc4c(c3c2)n(C2CCOCC2)c(=O)n4C)cn1 [AZD0156]
Outline: (§1)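 Cancer cell lines were plated in 1536-well plates in 7.5 μl of DMEM/F12 or RPMI with 10% FBS and kept 24 hours at 37°C and 5% CO2 before 72 hours of dosing, with final DMSO typically 0.2%. CellTiter-Glo 2.0 luminescence measured viability, scaled between blank-well and DMSO-well means. Dose responses were fitted to a two-parameter logistic curve with a non-linear mixed effects model. This fit gives the single-agent IC50.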

Lapatinib = compound: CS(=O)(=O)CCNCc1ccc(-c2ccc3ncnc(Nc4ccc(OCc5cccc(F)c5)c(Cl)c4)c3c2)o1 [Lapatinib]; conditions: max 10 µM
Outline: as §1

Savolitinib = compound: C[C@@H](c1ccc2nccn2c1)n1nnc2ncc(-c3cnn(C)c3)nc21 [Savolitinib]; conditions: max 1 µM
Outline: as §1

SG3199 = compound: CC1=CN2[C@@H](C1)C=NC3=CC(=C(C=C3C2=O)OC)OCCCCCOC4=C(C=C5C(=C4)N=C[C@@H]6CC(=CN6C5=O)C)OC [SG3199]; conditions: max 0.001 µM
Outline: as §1

Crizotinib = compound: C[C@@H](Oc1cc(-c2cnn(C3CCNCC3)c2)cnc1N)c1c(Cl)ccc(F)c1Cl [Crizotinib]; conditions: max 10 µM
Outline: as §1

Palbociclib = compound: CC(=O)c1c(C)c2cnc(Nc3ccc(N4CCNCC4)cn3)nc2n(C2CCCC2)c1=O [Palbociclib]; conditions: max 10 µM
Outline: as §1

Prexasertib = compound: COc1cccc(OCCCN)c1-c1cc(Nc2cnc(C#N)cn2)n[nH]1 [Prexasertib]; conditions: max 1 µM
Outline: as §1

Capivasertib = compound: C1CN(CCC1(C(=O)N[C@@H](CCO)C2=CC=C(C=C2)Cl)N)C3=NC=NC4=C3C=CN4 [Capivasertib]
Outline: as §1

Taselisib = compound: Cc1nc(-c2cn3c(n2)-c2ccc(-c4cnn(C(C)(C)C(N)=O)c4)cc2OCC3)n(C(C)C)n1 [Taselisib]; conditions: max 10 µM
Outline: as §1

AZD5991 = compound: Cc1c2c(nn1C)CSCc1cc(n(C)n1)CSc1cc(c3ccccc3c1)OCCCc1c(C(=O)O)n(C)c3c-2c(Cl)ccc13 [AZD5991]; conditions: max 1 µM
Outline: as §1

AZD8186 = compound: C[C@@H](Nc1cc(F)cc(F)c1)c1cc(C(=O)N(C)C)cc2c(=O)cc(N3CCOCC3)oc12 [AZD8186]; conditions: max 3 µM
Outline: as §1

Trametinib = compound: CC(=O)Nc1cccc(-n2c(=O)n(C3CC3)c(=O)c3c(Nc4ccc(I)cc4F)n(C)c(=O)c(C)c32)c1 [Trametinib]; conditions: max 1 µM
Outline: as §1

AZD2811 = compound: CCN(CCO)CCCOc1ccc2c(Nc3cc(CC(=O)Nc4cccc(F)c4)[nH]n3)ncnc2c1 [AZD2811]; conditions: max 1 µM
Outline: as §1

Venetoclax = compound: CC1(C)CCC(CN2CCN(c3ccc(C(=O)NS(=O)(=O)c4ccc(NCC5CCOCC5)c([N+](=O)[O-])c4)c(Oc4cnc5[nH]ccc5c4)c3)CC2)=C(c2ccc(Cl)cc2)C1 [Venetoclax]; conditions: max 1 µM
Outline: as §1

Doxorubicin = compound: COc1cccc2c1C(=O)c1c(O)c3c(c(O)c1C2=O)C[C@@](O)(C(=O)CO)C[C@@H]3O[C@H]1C[C@H](N)[C@H](O)[C@H](C)O1 [Doxorubicin]; conditions: max 1 µM
Outline: as §1

Selumetinib = compound: Cn1cnc2c(F)c(Nc3ccc(Br)cc3Cl)c(C(=O)NOCCO)cc21 [Selumetinib]; conditions: max 10 µM
Outline: as §1

Gefitinib = compound: COc1cc2ncnc(Nc3ccc(F)c(Cl)c3)c2cc1OCCCN1CCOCC1 [Gefitinib]; conditions: max 10 µM
Outline: as §1

AZD7648 = compound: Cc1cc2ncnn2cc1Nc1ncc2c(n1)n(C1CCOCC1)c(=O)n2C [AZD7648]; conditions: max 10 µM
Outline: as §1

AZD5153 = compound: COc1nnc2ccc(N3CCC(c4ccc(OCCN5CCN(C)C(=O)[C@H]5C)cc4)CC3)nn12 [AZD5153]; conditions: max 1 µM
Outline: as §1

AZD4320 = compound: CN(CC[C@H](CSC1=CC=CC=C1)NC2=C(C=C(C=C2)S(=O)(=O)NC(=O)C3=CC=C(C=C3)N4CCC(CC4)[C@H](C5=CC=CC=C5C6=CC=C(C=C6)Cl)O)S(=O)(=O)C(F)(F)F)CCO [AZD4320]; conditions: max 1 µM
Outline: as §1

Alisertib = compound: COc1cc(Nc2ncc3c(n2)-c2ccc(Cl)cc2C(c2c(F)cccc2OC)=NC3)ccc1C(=O)O [Alisertib]; conditions: max 10 µM
Outline: as §1

SN-38 = compound: CCc1c2c(nc3ccc(O)cc13)-c1cc3c(c(=O)n1C2)COC(=O)[C@]3(O)CC [SN-38]; conditions: max 0.3 µM
Outline: as §1

AZD6738 = compound: C[C@@H]1COCCN1C2=NC(=NC(=C2)C3(CC3)[S@](=N)(=O)C)C4=C5C=CNC5=NC=C4 [AZD6738]; conditions: max 10 µM
Outline: as §1

AZD1775 = compound: C=CCn1c(=O)c2cnc(Nc3ccc(N4CCN(C)CC4)cc3)nc2n1-c1cccc(C(C)(C)O)n1 [AZD1775]
Outline: as §1

Dasatinib = compound: CC1=C(C(=CC=C1)Cl)NC(=O)C2=CN=C(S2)NC3=CC(=NC(=N3)C)N4CCN(CC4)CCO [Dasatinib]; conditions: max 2 µM
Outline: as §1

AZD1390 = compound: CC(C)n1c(=O)n(C)c2cnc3cc(F)c(-c4ccc(OCCCN5CCCCC5)nc4)cc3c21 [AZD1390]; conditions: max 0.3 µM
Outline: as §1

Olaparib = compound: O=C(c1cc(Cc2n[nH]c(=O)c3ccccc23)ccc1F)N1CCN(C(=O)C2CC2)CC1 [Olaparib]; conditions: max 10 µM
Outline: as §1

Row | Cell Line | IC50, cell viability 72 h (AZD0156; max 3 µM) [nM] | IC50, cell viability 72 h (Lapatinib) [nM] | IC50, cell viability 72 h (Savolitinib) [nM] | IC50, cell viability 72 h (SG3199) [nM] | IC50, cell viability 72 h (Crizotinib) [nM] | IC50, cell viability 72 h (Palbociclib) [nM] | IC50, cell viability 72 h (Prexasertib) [nM] | IC50, cell viability 72 h (Capivasertib; max 10 µM) [nM] | IC50, cell viability 72 h (Taselisib) [nM] | IC50, cell viability 72 h (AZD5991) [nM] | IC50, cell viability 72 h (AZD8186) [nM] | IC50, cell viability 72 h (Trametinib) [nM] | IC50, cell viability 72 h (AZD2811) [nM] | IC50, cell viability 72 h (Venetoclax) [nM] | IC50, cell viability 72 h (Doxorubicin) [nM] | IC50, cell viability 72 h (Selumetinib) [nM] | IC50, cell viability 72 h (Gefitinib) [nM] | IC50, cell viability 72 h (AZD7648) [nM] | IC50, cell viability 72 h (AZD5153) [nM] | IC50, cell viability 72 h (AZD4320) [nM] | IC50, cell viability 72 h (Alisertib) [nM] | IC50, cell viability 72 h (SN-38) [nM] | IC50, cell viability 72 h (AZD6738) [nM] | IC50, cell viability 72 h (AZD1775; max 3 µM) [nM] | IC50, cell viability 72 h (Dasatinib) [nM] | IC50, cell viability 72 h (AZD1390) [nM] | IC50, cell viability 72 h (Olaparib) [nM] | IC50, cell viability 72 h (Capivasertib; max 3 µM) [nM] | IC50, cell viability 72 h (AZD0156; max 1 µM) [nM] | IC50, cell viability 72 h (AZD1775; max 1 µM) [nM]
1 | JiyoyeP-2003 (Burkitt's Lymphoma) | > 3000 | > 10000 | > 1000 | > 1 | > 10000 | 4700 | 11.7 | 2320 | 9670 | 814 | > 3000 | > 1000 | > 1000 | > 1000 | 172 | > 10000 | > 10000 | > 10000 | 49.2 | 403 | 271 | 14.1 | 1370 | 597 | 1020 | > 300 | > 10000 |  |  | 
2 | LU-99A (Non-Small Cell Lung Carcinoma) | > 3000 | > 10000 | > 1000 | > 1 | > 10000 | > 10000 | 77.1 | > 10000 | 3080 | > 1000 | > 3000 | 163 | > 1000 | > 1000 | 577 | > 10000 | > 10000 | > 10000 | > 1000 | > 1000 | > 10000 | 39.7 | > 10000 | > 3000 | 1510 | > 300 | > 10000 |  |  | 
3 | NB(TU)1-10 (Neuroblastoma) | > 3000 |  |  | > 1 |  |  | 8.06 |  |  |  |  |  | > 1000 |  | 468 |  |  | > 10000 |  |  |  | 17 | 6880 | 835 |  |  | > 10000 | > 3000 |  | 
4 | NCI-H1694 (Small Cell Lung Carcinoma) |  | > 10000 | > 1000 | > 1 | > 10000 | > 10000 | 66.9 | > 10000 | > 10000 | 109 | > 3000 | > 1000 | > 1000 | > 1000 | 727 | > 10000 | > 10000 | > 10000 | > 1000 | 462 | > 10000 | 3.95 | 9060 |  | > 2000 | > 300 | > 10000 |  | > 1000 | > 1000
